Results from patent publication US20070213283A1, “Macrolides substituted at the 4"-position” (priority 2003, published 2007).
Structures can show the parent of a compound that is named as a salt.

Key:
Assay in all cases: MIC, standard broth dilution method in microtitre
Assay type in all cases: cell-based
E. faecalis ATCC 29212 = details: Enterococcus faecalis, ATCC29212
Protocol: (§1) Using a standard broth dilution method in microtitre, compounds were tested for antibacterial activity. The compounds in the above examples gave minimum inhibitory concentrations (MICs) less than 1 microgram per millilitre against erythromycin-sensitive and erythromycin-resistant strains of Streptococcus pneumoniae and Streptococcus pyogenes.
(§2) In addition, the MIC (μg/mL) of test compounds against various organisms was determined including:
(§3) S. aureus Smith ATCC 13709, S. pneumoniae SP030, S. pyogenes 3565, E. faecalis ATCC 29212, H. influenzae ATCC 49247, M. catarrhalis ATCC 23246.

H. influenzae ATCC 49247 = details: Haemophilus influenzae, ATCC49247; H. influenzae ATCC 49247; broth dilution in microtitre; read-out: MIC
Protocol: as §1, §2, §3

[1] = test system: M. catarrhalis ATCC 23246; details: Moraxella catarrhalis, ATCC23246
Protocol: as §1, §2, §3

[2] = test system: S. aureus Smith ATCC 13709; details: Staphylococcus aureus, ATCC13709
Protocol: as §1, §2, §3

S. pneumoniae SP030 = details: Streptococcus pneumoniae
Protocol: as §1, §2, §3

S. pyogenes 3565 = details: Streptococcus pyogenes
Protocol: as §1, §2, §3

| MIC (E. faecalis ATCC 29212) [µg/mL] | MIC (H. influenzae ATCC 49247) [µg/mL] | MIC [1] [µg/mL] | MIC [2] [µg/mL] | MIC (S. pneumoniae SP030) [µg/mL] | MIC (S. pyogenes 3565) [µg/mL] | SMILES |
| --- | --- | --- | --- | --- | --- | --- |
| ≤ 1 | ≤ 2 | ≤ 2 | ≤ 1 | ≤ 1 | ≤ 1 | CC[C@H]1OC(=O)[C@H](C)[C@@H](OC2C[C@@](C)(OC)[C@@H](OC(=O)CCOCCOc3ccc4c(c3)c(=O)c(C(=O)O)cn4C3CC3)[C@H](C)O2)[C@H](C)[C@@H](OC2O[C@H](C)C[C@H](N(C)C)[C@H]2O)[C@](C)(O)C[C@@H](C)CN(C)[C@H](C)[C@@H](OC)[C@]1(C)O (some centres unmarked) [Example 35, 4″-O-{3-[2-(3-Carboxy-1-cyclopropyl-4-oxo-1,4-dihydro-quinolin-6-yloxy)-ethoxy]-propionyl}-11-O-methyl-azithromycin] |
| ≤ 1 |  |  | ≤ 1 | ≤ 1 | ≤ 1 | CC[C@@H]1OC(=O)[C@H](C)[C@H](O[C@@H]2C[C@@](C)(OC)[C@H](OC(=O)CCOCCOc3cc4c(=O)c(C(=O)O)cn(C5CC5)c4cc3Cl)[C@H](C)O2)[C@@H](C)[C@H](O[C@@H]2O[C@H](C)C[C@H](N(C)C)[C@@H]2O)[C@@](C)(OC)C[C@H](C)C(=O)[C@H](C)[C@@H](O)[C@]1(C)O [Example 37, 4″-O-{3-[2-(3-Carboxy-7-chloro-1 cyclopropyl-4-oxo-1,4-dihydro-quinolin-6-yloxy)ethoxy]propionyl}-6-O-methyl-erythromycin A] |
| ≤ 1 | ≤ 2 | ≤ 2 | ≤ 1 | ≤ 1 | ≤ 1 | CC[C@H]1OC(=O)[C@H](C)[C@@H](O[C@H]2C[C@@](C)(OC)[C@@H](OC(=O)CCNCCSc3ccc4c(=O)c(C(=O)O)cn(CC)c4c3)[C@H](C)O2)[C@@H](C)[C@@H](O[C@@H]2O[C@H](C)C[C@H](N(C)C)[C@H]2O)[C@](C)(O)C[C@@H](C)CN(C)[C@H](C)[C@@H](O)[C@]1(C)O [Example 1, 4″-O-{3-[2-(3-Carboxy-1-ethyl-4-oxo-1,4-dihydro-7-quinolinylsulfanyl)ethylamino]propionyl}-azithromycin] |
| ≤ 1 |  |  | ≤ 1 | ≤ 1 | ≤ 1 | CC[C@@H]1OC(=O)[C@H](C)[C@H](O[C@@H]2C[C@](C)(OC)[C@H](OC(=O)CCNCCOc3cc4c5c(c3)c(=O)c(C(=O)O)cn5CCC4)[C@H](C)O2)[C@@H](C)[C@H](O[C@@H]2O[C@H](C)C[C@H](N(C)C)[C@@H]2O)[C@](C)(O)C[C@H](C)CN(C)[C@H](C)[C@@H](O)[C@]1(C)O [Example 12, 4″-O-{3-[2-(6-Carboxy-7-oxo-2,3-dihydro-1H,7H-pyrido[3,2,1-ij]quinolin-9-yloxy)ethylamino]propionyl}-azithromycin tris trifluoroacetate salt] |
|  | ≤ 2 | ≤ 2 |  |  |  | CC[C@@H]1OC(=O)[C@H](C)[C@H](O[C@H]2C[C@@](C)(OC)[C@@H](OC(=O)CCNCCSc3ccc4c(=O)c(C(=O)O)cn(CC)c4c3)[C@@H](C)O2)[C@@H](C)[C@H](OC2O[C@@H](C)C[C@@H](N(C)C)[C@H]2O)[C@@](C)(OC)C[C@H](C)C(=O)[C@H](C)[C@@H](O)[C@]1(C)O (some centres unmarked) [Example 3, 4″-O-{3-[2-(3-Carboxy-1-ethyl-4-oxo-1,4-dihydro-7-quinolinylsulfanyl)ethylamino]propionyl}-6-O-methyl-erythromycin A] |
| ≤ 1 |  |  | ≤ 1 | ≤ 1 | ≤ 1 | CC[C@H]1OC(=O)[C@H](C)[C@@H](O[C@H]2C[C@@](C)(OC)[C@@H](OC(=O)CCOCCNc3cc4c(=O)c(C(=O)O)cn(C5CC5)c4cc3Cl)[C@H](C)O2)[C@H](C)[C@@H](O[C@@H]2O[C@H](C)C[C@H](N(C)C)[C@H]2O)[C@](C)(OC)C[C@@H](C)C(=O)[C@H](C)[C@@H](O)[C@]1(C)O [Example 36, 4″-O-{3-[2-(3-Carboxy-7-chloro-1-cyclopropyl-4-oxo-1,4-dihydro-quinolin-6-ylamino)ethoxy]propionyl}-6-O-methyl-erythromycin A] |
| ≤ 1 | ≤ 2 | ≤ 2 | ≤ 1 | ≤ 1 | ≤ 1 | CC[C@@H]1OC(=O)[C@H](C)[C@@H](O[C@H]2C[C@@](C)(OC)[C@@H](OC(=O)CCNCCSc3ccc4c(=O)c(C(=O)O)cn(CC)c4c3)[C@@H](C)O2)[C@@H](C)[C@H](O[C@H]2O[C@@H](C)C[C@@H](N(C)C)[C@H]2O)[C@](C)(O)C[C@H](C)CN(C)[C@H](C)[C@H]2OC(=O)O[C@]12C [Example 2, 4″-O-{3-[2-(3-Carboxy-1-ethyl-4-oxo-1,4-dihydro-7-quinolinylsulfanyl)ethylamino]propionyl}-azithromycin-11,12-carbonate] |
| ≤ 1 | ≤ 2 | ≤ 2 | ≤ 1 | ≤ 1 | ≤ 1 | CC[C@H]1OC(=O)[C@H](C)[C@@H](O[C@H]2C[C@@](C)(OC)[C@@H](OC(=O)CCOCCNc3cc4c(cc3F)c(=O)c(C(=O)O)cn4C3CC3)[C@H](C)O2)[C@H](C)[C@@H](O[C@@H]2O[C@H](C)C[C@H](N(C)C)[C@H]2O)[C@](C)(O)C[C@@H](C)CN(C)[C@H](C)[C@@H](O)[C@]1(C)O [Example 40, 4″-O-{3-[2-(3-Carboxy-1-cyclopropyl-6-fluoro-4-oxo-1,4-dihydro-quinolin-7-ylamino)ethoxy]propionyl}-azithromycin] |
| ≤ 1 | ≤ 2 | ≤ 2 | ≤ 1 | ≤ 1 | ≤ 1 | CC[C@H]1OC(=O)[C@H](C)[C@@H](O[C@H]2C[C@@](C)(OC)[C@@H](OC(=O)CCOCCOc3ccc4c(c3)c(=O)c(C(=O)O)cn4C3CC3)[C@H](C)O2)[C@H](C)[C@@H](O[C@@H]2O[C@H](C)C[C@H](N(C)C)[C@H]2O)[C@](C)(O)C[C@@H](C)CN(C)[C@H](C)[C@H]2OC(=O)O[C@@]21C [Example 26, 4″-O-{3-[2-(3-Carboxy-1-cyclopropyl-4-oxo-1,4-dihydro-quinolin-6-yloxy)-ethoxy]-propionyl}-azithromycin11,12-carbonate] |
| ≤ 1 |  |  | ≤ 1 | ≤ 1 | ≤ 1 | CC[C@@H]1OC(=O)[C@H](C)[C@H](O[C@@H]2C[C@](C)(OC)[C@H](OC(=O)CCNCCSc3ccc4c(c3)c(=O)c(C(=O)O)cn4CC)[C@H](C)O2)[C@@H](C)[C@H](O[C@@H]2O[C@H](C)C[C@H](N(C)C)[C@@H]2O)[C@](C)(O)C[C@H](C)CN(C)[C@H](C)[C@@H](O)[C@]1(C)O [Example 10, 4″-O-{3-[2-(3-Carboxy-1-ethyl-4-oxo-1,4-dihydro-6-quinolinysulfanyl)ethylamino]propionyl}-azithromycin] |
| ≤ 1 |  |  | ≤ 1 | ≤ 1 | ≤ 1 | CC[C@H]1OC(=O)[C@H](C)[C@@H](O[C@H]2C[C@@](C)(OC)[C@@H](OC(=O)CCOCCOc3cc4c(=O)c(C(=O)O)cn(C5CC5)c4cc3Cl)[C@H](C)O2)[C@H](C)[C@@H](O[C@@H]2O[C@H](C)C[C@H](N(C)C)[C@H]2O)[C@](C)(O)C[C@@H](C)CN(C)[C@H](C)[C@H]2OC(=O)O[C@@]21C [Example 25, 4″-O-{3-[2-(3-Carboxy-7-chloro-1-cyclopropyl-4-oxo-1,4-dihydro-quinolin-6-yloxy)-ethoxy]-propionyl}-azithromycin11,12-carbonate] |
| ≤ 1 |  |  | ≤ 1 | ≤ 1 | ≤ 1 | CC[C@@H]1OC(=O)[C@H](C)[C@H](O[C@@H]2C[C@](C)(OC)[C@H](OC(=O)CCNCCOc3ccc4c(c3)c(=O)c(C(=O)O)cn4CC)[C@H](C)O2)[C@@H](C)[C@H](O[C@@H]2O[C@H](C)C[C@H](N(C)C)[C@@H]2O)[C@](C)(O)C[C@H](C)CN(C)[C@H](C)[C@@H](O)[C@]1(C)O [Example 14, 4″-O-{3-[2-(3-Carboxy-1-ethyl-4-oxo-1,4-dihydro-6-quinolinyloxy)ethylamino]propionyl}-azithromycin tris trifluoroacetate salt] |
| ≤ 1 | ≤ 2 | ≤ 2 | ≤ 1 | ≤ 1 | ≤ 1 | CC[C@H]1OC(=O)[C@H](C)[C@@H](OC2C[C@@](C)(OC)[C@@H](OC(=O)CCOCCOc3cc4c(=O)c(C(=O)O)cn(C5CC5)c4cc3Cl)[C@H](C)O2)[C@H](C)[C@@H](O[C@@H]2O[C@H](C)C[C@H](N(C)C)[C@H]2O)[C@](C)(O)C[C@@H](C)CN(C)[C@H](C)[C@@H](OC)[C@]1(C)O (some centres unmarked) [Example 34, 4″-O-{3-[2-(3-Carboxy-7-chloro-1-cyclopropyl-4-oxo-1,4-dihydro-quinolin-6-yloxy)-ethoxy]-propionyl}-11-O-methyl-azithromycin] |

| SMILES | MIC (E. faecalis ATCC 29212) [µg/mL] | MIC (H. influenzae ATCC 49247) [µg/mL] | MIC [1] [µg/mL] | MIC [2] [µg/mL] | MIC (S. pneumoniae SP030) [µg/mL] | MIC (S. pyogenes 3565) [µg/mL] |
| --- | --- | --- | --- | --- | --- | --- |
| CC[C@@H]1OC(=O)[C@H](C)[C@H](O[C@H]2C[C@](C)(OC)[C@@H](OC(=O)CCNCCSc3cnc4c(c3)c(=O)c(C(=O)O)cn4CC)[C@@H](C)O2)[C@@H](C)[C@H](O[C@H]2O[C@@H](C)C[C@@H](N(C)C)[C@H]2O)[C@@](C)(O)C[C@H](C)CN(C)[C@H](C)[C@@H](O)[C@@]1(C)O [Example 4, 4″-O-{3-[2-(3-Carboxy-1-ethyl-4-oxo-1,4-dihydro-[1,8]naphthyridin-6-ylsulfanyl)ethylamino]propionyl}-azithromycin tris trifluoroacetate salt] | ≤ 1 | ≤ 2 | ≤ 2 | ≤ 1 | ≤ 1 | ≤ 1 |
